Reference: patent publication US4968672A, “Adenosine receptor prodrugs” (priority 1987, dated 1990)
Counter-ions that a name gives are not always drawn. Like-named read-outs stand apart in the source and are kept apart here.

How the values were obtained:
[1] = molecular target: T1, A1 adenosine receptors (Rattus norvegicus, UniProt P25099); test: membrane binding assay at A1 adenosine receptors (Tables 1 and 2)
T1 construct: rat cerebral cortex membranes; from tissue; host or cells: rat cerebral cortex membranes
T1 sequence (P25099 1-326): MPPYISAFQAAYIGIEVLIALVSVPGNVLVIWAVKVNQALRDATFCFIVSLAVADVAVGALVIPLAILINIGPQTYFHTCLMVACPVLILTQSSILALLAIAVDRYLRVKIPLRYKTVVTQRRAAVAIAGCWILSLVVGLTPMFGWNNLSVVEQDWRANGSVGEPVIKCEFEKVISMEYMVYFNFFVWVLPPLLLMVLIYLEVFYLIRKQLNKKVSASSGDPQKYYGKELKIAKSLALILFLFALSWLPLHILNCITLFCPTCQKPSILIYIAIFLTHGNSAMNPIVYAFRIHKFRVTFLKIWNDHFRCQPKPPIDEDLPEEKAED
Description: Table 2 lists prodrugs (including Routes A and B of FIG. 2) and chemical intermediates, based on xanthine and adenosine functionalized congener and the method of synthesis. The potency of each compound at A1 adenosine receptors is indicated by the Ki (inverse relationship to potency) in a membrane binding assay.

[2] = molecular target: T2, A2 receptor (Homo sapiens, UniProt P29274); test: antagonism of NECA-induced stimulation of adenylate cyclase activity in human platelet membranes; assay type: biochemical; conditions: antagonism of NECA-stimulated adenylate cyclase, human platelet membranes; means with 95% confidence limits from 3 experiments; read-out: A2 receptor KB
T2 construct: human platetlet membranes; from tissue; host or cells: human platelet membranes
T2 sequence (P29274 whole entry): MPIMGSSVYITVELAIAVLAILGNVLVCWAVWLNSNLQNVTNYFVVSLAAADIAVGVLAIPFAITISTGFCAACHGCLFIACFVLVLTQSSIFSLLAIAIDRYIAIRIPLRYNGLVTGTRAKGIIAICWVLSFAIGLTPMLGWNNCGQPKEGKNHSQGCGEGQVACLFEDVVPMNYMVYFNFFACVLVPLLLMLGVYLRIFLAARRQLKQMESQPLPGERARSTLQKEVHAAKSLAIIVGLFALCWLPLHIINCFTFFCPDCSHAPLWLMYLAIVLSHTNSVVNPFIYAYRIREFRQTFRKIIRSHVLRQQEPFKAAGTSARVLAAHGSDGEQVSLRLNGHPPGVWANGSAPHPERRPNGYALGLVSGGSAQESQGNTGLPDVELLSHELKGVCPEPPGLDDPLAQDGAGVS
Description: (§1) Measurements of the potencies of the xanthines as antagonists of NECA-induced stimulation of adenylate cyclase activity in human platetlet membranes and as inhibitors of [^3 H]PIA binding to rat cerebral cortex membranes were carried out as reported previously.

[3] = molecular target: T3, A1 receptor (Rattus norvegicus, UniProt P25099); test: inhibition of [3H]PIA binding to rat cerebral cortex membranes
T3 construct: rat cerebral cortex membranes; from tissue; host or cells: rat cerebral cortex membranes
T3 sequence (P25099 1-326): T1 sequence (P25099 1-326)
Description: as §1

[4] = Table 1, prodrug before cleavage, read-out: Ki(nM) at A1 Before Cleavage
[5] = Table 1, liberated product, read-out: Ki(nM) at A1 After Cleavage
[6] = [3H]PIA, rat cerebral cortex membranes, means from two experiments, read-out: A1 receptor Ki

Row | Structure (SMILES) | Ki ([1]; Table 2, read-out: Ki (A1(nM))) [nM] | also measured
1 | CCCCCCCCCCCCCC(=O)OCC(COC(=O)CCCCCCCCCCCCC)OC(=O)COc1ccc(-c2nc3c([nH]2)c(=O)n(CCC)c(=O)n3CCC)cc1 [1,3-dimyristin-(2-XCC), 1,3-Dimyristin-2-XCC] | 104 ± 7.7 | Ki [1, 4]: 104 nM
2 | CCCn1c(=O)c2[nH]c(-c3ccc(OCC(=O)NCCNC(=O)CNC(=O)[C@H](Cc4ccc(OC(C)=O)cc4)NC(C)=O)cc3)nc2n(CCC)c1=O [AcTyr(OAc)GlyXAC] | 3.9 | 
3 | CCCn1c(=O)c2[nH]c(-c3ccc(OCC(=O)NCCNC(=O)[C@H](CC(=O)OCc4ccccc4)NC(=O)OC(C)(C)C)cc3)nc2n(CCC)c1=O [BocAsp(OBzl)XAC] | 150 | Ki [1, 4]: 150 nM
4 | CCCn1c(=O)c2[nH]c(-c3ccc(OCC(=O)NCCNC(=O)[C@H](CC(=O)O)NC(=O)OC(C)(C)C)cc3)nc2n(CCC)c1=O [BocAspXAC] | 30 | 
5 | CCCn1c(=O)c2[nH]c(-c3ccc(OCC(=O)NCCNC(=O)CC[C@H](NC(=O)OC(C)(C)C)C(=O)OCc4ccccc4)cc3)nc2n(CCC)c1=O [BocGlu(XAC)OBzl, Boc-glutamyl(gamma-XAC)-alpha-benzyl ester] | 18 | 
6 | CCCn1c(=O)c2[nH]c(-c3ccc(OCC(=O)NCCNC(=O)CNC(=O)CNC(=O)OCc4ccccc4)cc3)nc2n(CCC)c1=O [CbzGlyGlyXAC] | 3.1 | 
7 | CCCn1c(=O)c2[nH]c(-c3ccc(OCC(=O)NCCNC(=O)CNC(=O)[C@H](Cc4ccc(O)cc4)NC(=O)OCc4ccccc4)cc3)nc2n(CCC)c1=O [CbzTyrGlyXAC] | 4 | Ki [1, 4]: 4 nM
8 | CCCn1c(=O)c2[nH]c(-c3ccc(OCC(=O)NCCNC(=O)[C@@H](NC(=O)[C@H](Cc4ccc(O)cc4)NC(=O)OCc4ccccc4)C(C)C)cc3)nc2n(CCC)c1=O [CbzTyrValXAC] | 3.7 | 
9 | CCCn1c(=O)c2[nH]c(-c3ccc(OCC(=O)NCCNC(=O)CNC(=O)CN)cc3)nc2n(CCC)c1=O [Compound 20] | 3.6 | 
10 | CCCn1c(=O)c2[nH]c(-c3ccc(OCC(=O)NCCNC(=O)CNC(=O)[C@@H](N)Cc4ccc(O)cc4)cc3)nc2n(CCC)c1=O [Compound 22] |  | Ki [1]: 5.3 nM
11 | CCCn1c(=O)c2[nH]c(-c3ccc(OCC(=O)NCCNC(=O)[C@@H](NC(=O)[C@@H](N)Cc4ccc(O)cc4)C(C)C)cc3)nc2n(CCC)c1=O [Compound 26] |  | Ki [1]: 3 nM
12 | CCCCCCCC/C=C\CCCCCCCC(=O)OCC(COP(=O)(O)OCCNC(=O)COc1ccc(-c2nc3c([nH]2)c(=O)n(CCC)c(=O)n3CCC)cc1)OC(=O)CCCCCCC/C=C\CCCCCCCC (centres unmarked) [Compound 32, XCC-phosphatidylethanolamine] | 24 ± 1 | potency at adenosine A1 receptors relative to compound 33 / to hydrolysis product [1]: of comparable potency
13 | CCCn1c(=O)c2[nH]c(-c3ccc(OCC(=O)NCCO)cc3)nc2n(CCC)c1=O [Compound 39] | 13 | Ki [1, 5]: 12 nM
14 | CCCn1c(=O)c2[nH]c(-c3ccc(OCC(=O)NCCNC(=O)c4ccc[n+](C)c4)cc3)nc2n(CCC)c1=O [Compound 43] | 40 | Ki [1, 5]: 10 nM; Ki [1, 4]: 10 nM
15 | Cn1c(=O)c2[nH]c(-c3ccccc3)nc2n(C)c1=O [Compound 51a] |  | Kb [2]: 1900 nM
16 | CCn1c(=O)c2[nH]c(-c3ccccc3)nc2n(CC)c1=O [Compound 51b] |  | Kb [2]: 210 nM
17 | CCCn1c(=O)c2[nH]c(-c3ccccc3)nc2n(CCC)c1=O [Compound 51c, 1,3-dipropyl-8-phenylxanthine] |  | Ki [3, 6]: 13 nM
18 | Cc1ccc(NC(=O)COc2ccc(-c3nc4c([nH]3)c(=O)n(C)c(=O)n4C)cc2)cc1 [Compound 57a] |  | Ki [3, 6]: 27 nM
19 | CCCn1c(=O)c2[nH]c(-c3ccc(OCC(=O)NCCNC(=O)CN)cc3)nc2n(CCC)c1=O [HGlyXAC] |  | Ki [1, 5]: 2.1 nM
20 | CCCn1c(=O)c2[nH]c(-c3ccc(OCC(=O)NCCNC(=O)[C@@H](N)C(C)C)cc3)nc2n(CCC)c1=O [HValXAC] |  | Ki [1, 5]: 3 nM
21 | CCCCCC=CCC=CCCCCCCCC(=O)NC(Cc1ccc(OC(=O)CCCCCCCC=CCC=CCCCCC)cc1)C(=O)NCC(=O)NCCNC(=O)COc1ccc(-c2nc3c([nH]2)c(=O)n(CCC)c(=O)n3CCC)cc1 (centres unmarked) [Linoleyl-Tyr(O-linoleyl)-GlyXAC] | 20 | Ki [1, 4]: 20 nM
22 | CCCCC/C=C\C/C=C\CCCCCCCC(=O)NCCNC(=O)Cc1ccc(NC(=O)Cc2ccc(Nc3ncnc4c3ncn4[C@@H]3O[C@H](CO)[C@@H](O)[C@H]3O)cc2)cc1 [N-linoleyl-ADAC] | 0.5 | 
23 | CCCn1c(=O)c2c(nc(-c3ccc(OCC(=O)NCCNC(=O)OCc4ccccc4)cc3)n2Cc2ccccc2)n(CCC)c1=O [NCbz(N7-benzyl)XAC] | 95 | 
24 | CCCCCCCC/C=C/CCCCCCCC(=O)OCCNC(=O)COc1ccc(-c2nc3c([nH]2)c(=O)n(CCC)c(=O)n3CCC)cc1 [O-elaidoyl-XHC, Elaidic ester of hydroxy congener] | 85 | 
25 | CCCn1c(=O)c2[nH]c(-c3ccc(OCC(=O)NCCNC(=O)[C@H](N)Cc4ccc([N+](=O)[O-])cc4)cc3)nc2n(CCC)c1=O [TFA.HD(p-NO2)PheXAC] | 4.3 | 
26 | CCCn1c(=O)c2[nH]c(-c3ccc(OCC(=O)NCCNC(=O)CC[C@H](N)C(=O)OCc4ccccc4)cc3)nc2n(CCC)c1=O [TFA.HGlu(XAC)OBzl, Glutamic acid (gamma-XAC) alpha benzyl ester trifluoroacetate] |  | Ki [1]: 1.8 nM
27 | CCCCCCCCCCCCCC(=O)NCCNC(=O)COc1ccc(-c2nc3c([nH]2)c(=O)n(CCC)c(=O)n3CCC)cc1 [drawing 10] |  | Ki [1, 4]: 49 nM
28 | CCn1c(=O)c2[nH]c(-c3ccc(OCC(=O)N(C)CCN(C)C)cc3)nc2n(CC)c1=O [tri-methyl substition of 56b] |  | Ki ([3]; read-out: Ki (A1-potency)): 1.5 nM

Now from value to compound, other results behind:

Row | Ki ([1]; Table 2, read-out: Ki (A1(nM))) [nM] | Structure (SMILES) | also measured
29 | 250 | CCCn1c(=O)c2c(nc(-c3ccc(OCC(=O)NCCN)cc3)n2Cc2ccccc2)n(CCC)c1=O [(N7-benzyl)XAC] | 
30 | 20 | CCCn1c(=O)c2[nH]c(-c3ccc(OCC(=O)NCCNC(=O)[C@H](CC(C)C)NC(C)=O)cc3)nc2n(CCC)c1=O [AcLeuXAC] | 
31 | 5 | CCCn1c(=O)c2[nH]c(-c3ccc(OCC(=O)NCCNC(=O)[C@@H](NC(=O)[C@H](Cc4ccc(OC(C)=O)cc4)NC(C)=O)C(C)C)cc3)nc2n(CCC)c1=O [AcTyr(OAc)ValXAC] | Ki [1, 4]: 5 nM
32 | 89 | CCCn1c(=O)c2[nH]c(-c3ccc(OCC(=O)NCCNC(=O)[C@@H](Cc4ccc([N+](=O)[O-])cc4)NC(=O)OC(C)(C)C)cc3)nc2n(CCC)c1=O [BocD(p-NO2)PheXAC] | 
33 | 10 | CCCn1c(=O)c2[nH]c(-c3ccc(OCC(=O)NCCNC(=O)CNC(=O)CNC(=O)CNC(=O)OCc4ccccc4)cc3)nc2n(CCC)c1=O [CbzGlyGlyGlyXAC] | 
34 | 32 | CCCn1c(=O)c2[nH]c(-c3ccc(OCC(=O)NCCNC(=O)[C@@H](Cc4ccc(N)cc4)NC(=O)OC(C)(C)C)cc3)nc2n(CCC)c1=O [Compound 10] | 
35 | < 0.3 | CCCCCCCC/C=C/CCCCCCCC(=O)NCCNC(=O)Cc1ccc(NC(=O)Cc2ccc(Nc3ncnc4c3ncn4[C@@H]3O[C@H](CO)[C@@H](O)[C@H]3O)cc2)cc1 [Compound 37] | potency in the blocked form [1]: highly potent in the blocked form
36 | 12 | CCCn1c(=O)c2[nH]c(-c3ccc(OCC(=O)NCCOC(C)=O)cc3)nc2n(CCC)c1=O [Compound 40] | 
37 | 10 | CCCn1c(=O)c2[nH]c(-c3ccc(OCC(=O)NCCNC(=O)CNC(=O)CNC(=O)CN)cc3)nc2n(CCC)c1=O [HBr.HGlyGlyGlyXAC] | 
38 | 17 | CCCn1c(=O)c2[nH]c(-c3ccc(OCC(=O)NCCNC(=O)CC[C@H](N)C(=O)O)cc3)nc2n(CCC)c1=O [HGlu(XAC)OH] | 
39 | 170 | CCCn1c(=O)c2[nH]c(-c3ccc(OCC(=O)NCCNC(=O)CN(CC(=O)O)C(=O)OCC4c5ccccc5-c5ccccc54)cc3)nc2n(CCC)c1=O [HO2 CCH2N(FMOC)CH2 COXAC, 8-[N -Carboxymethyl-N -(9-fluorenylmethyloxycarbonyl) -[[[[[[[[[amino]methyl]carbonyl]amino]ethyl]amino]carbonyl]methyl]-oxy]phenyl]-1,3-dipropylxanthine] | 
40 | 35 | CCCCC/C=C\C/C=C\CCCCCCCC(=O)NCCNC(=O)COc1ccc(-c2nc3c([nH]2)c(=O)n(CCC)c(=O)n3CCC)cc1 [N-linoleyl-XAC] | 
41 | 1 | CCCCCCCCCCCCCCCCCC(=O)NCCNC(=O)Cc1ccc(NC(=O)Cc2ccc(Nc3ncnc4c3ncn4[C@@H]3O[C@H](CO)[C@@H](O)[C@H]3O)cc2)cc1 [N-stearoyl-ADAC, Stearoyl-ADAC] | 
42 | 8 | CCCn1c(=O)c2[nH]c(-c3ccc(OCC(=O)NCCNC(=O)OCc4ccccc4)cc3)nc2n(CCC)c1=O [NCbzXAC] | 
43 | 208 | CCCCCCCCCCCCCCCCCC(=O)OCCNC(=O)COc1ccc(-c2nc3c([nH]2)c(=O)n(CCC)c(=O)n3CCC)cc1 [O-stearoyl-XHC] | Ki [1, 4]: 208 nM
44 | 4 | CCCn1c(=O)c2[nH]c(-c3ccc(OCC(=O)NCCNC(=O)[C@H](N)Cc4ccc(N)c(I)c4)cc3)nc2n(CCC)c1=O [TFA.HD(p-NH2 -m-I)PheXAC] | 
45 | 2.3 | CCCn1c(=O)c2[nH]c(-c3ccc(OCC(=O)NCCNC(=O)[C@H](N)Cc4ccc(N)cc4)cc3)nc2n(CCC)c1=O [TFA.HD(p-NH2)PheXAC] | 
